Assay results from patent US11872262B2, “Means and methods for treating bacterial infections” (VIB VZW, priority 2017, dated 2024).
Residues, ends and D or L forms follow the SMILES beside them.

Test system: E. coli O157:H7
Format: cell-based, Escherichia coli
Conditions: screening-stage peptides tested at 1, 6, 12 and 25 μg/mL
Source text: In the present invention we used the statistical thermodynamics algorithm TANGO to identify aggregation prone regions (APR) in the proteome of E. coli strain O157:H7. This yielded 3535 sequences of at least 6 amino acids in length and a TANGO score of at least 20%. In order to generate efficient aggregation seeds, we employed a previously devised tandem repeat design ^19, 21, in which the APRs are repeated once and separated by a linker. Given the length limitation on solid phase peptide synthesis with regard to yield and purity, we focused on the 1542 APRs with a length of 7 amino acids. In order to maximize the potential of these peptides to induce aggregation in E. coli, we ranked the APRs by their frequency of occurrence throughout the E. coli proteome, allowing a single amino acid mismatch, and selected the first 75 most frequently occurring sequences from this list (Table 4). In the design pattern, and in order to increase the colloidal stability of these aggregating peptides, the APRs are flanked by aggregation gatekeepers, a class of residues that was previously shown to reduce aggregation kinetics^22-24. […] To generate the tandem we used a single proline residue as a linker between the gatekeeper-flanked APRs. In addition to the 75 peptides generated in this fashion, we added 2 variants of each of the first 25 peptides in the list by randomly mutating one residue in the first APR repeat to arginine to further modulate the aggregation propensity of the peptides (Table 4). All the peptides were generated using solid phase synthesis at 200 nmole scale and dissolved in DMSO to a theoretical stock concentration of 2 mM (assuming 100% synthesis efficiency). Peptide activity on the growth of E. coli O157:H7 was measured at dilutions of the peptide corresponding to concentrations of 1, 6, 12 and 25 μg/mL. […] The Matthews Correlations Coefficient (MCC) with the measured activity was 0.1 at 12 μg/mL and 0.24 at 25 μg/mL.

Q: With `CC(C)C[C@H](NC(=O)[C@H](C)NC(=O)[C@H](CC(C)C)NC(=O)[C@H](CC(C)C)NC(=O)[C@H](CC(C)C)NC(=O)[C@H](CCCNC(=N)N)NC(=O)[C@@H]1CCCN1C(=O)[C@H](CCCNC(=N)N)NC(=O)[C@H](CCCNC(=N)N)NC(=O)[C@H](CO)NC(=O)[C@H](CC(C)C)NC(=O)[C@H](CC(C)C)NC(=O)[C@H](C)NC(=O)[C@H](CC(C)C)NC(=O)[C@H](CC(C)C)NC(=O)[C@H](CC(C)C)NC(=O)[C@@H](N)CCCNC(=N)N)C(=O)N[C@@H](CC(C)C)C(=O)N[C@@H](CO)C(=O)N[C@@H](CCCNC(=N)N)C(=O)N[C@@H](CCCNC(=N)N)C(=O)O` [Peptide P3] (H-RLLLALLSRRPRLLLALLSRR-OH; N-terminus and C-terminus assumed) as the molecule, how does the “E. coli O157 (apparent MIC in screen)” value read?
A: The value was 12 µg/mL.

Q: How did the “E. coli O157 (apparent MIC in screen)” value turn out when `CC(C)C[C@H](NC(=O)[C@H](C)NC(=O)[C@H](CC(C)C)NC(=O)[C@H](CCCNC(=N)N)NC(=O)[C@@H]1CCCN1C(=O)[C@H](CCCNC(=N)N)NC(=O)[C@H](CCCNC(=N)N)NC(=O)[C@H](CC(C)C)NC(=O)[C@H](CC(C)C)NC(=O)[C@H](CC(C)C)NC(=O)[C@H](C)NC(=O)[C@H](CC(C)C)NC(=O)[C@H](C)NC(=O)[C@H](CC(C)C)NC(=O)[C@@H](N)CCCNC(=N)N)C(=O)N[C@@H](C)C(=O)N[C@@H](CC(C)C)C(=O)N[C@@H](CC(C)C)C(=O)N[C@@H](CC(C)C)C(=O)N[C@@H](CCCNC(=N)N)C(=O)N[C@@H](CCCNC(=N)N)C(=O)O` [Peptide P4] (H-RLALALLLRRPRLALALLLRR-OH; N-terminus and C-terminus assumed) was run?
A: Its value is 6 µg/mL.

Q: Which “E. coli O157 (apparent MIC in screen)” value does the source give for `CC(C)C[C@H](NC(=O)[C@H](C)NC(=O)[C@H](CCCNC(=N)N)NC(=O)[C@@H]1CCCN1C(=O)[C@H](CCCNC(=N)N)NC(=O)[C@H](CCCNC(=N)N)NC(=O)[C@H](CC(C)C)NC(=O)[C@H](CC(C)C)NC(=O)[C@@H](NC(=O)[C@@H](NC(=O)[C@H](CC(C)C)NC(=O)[C@H](CC(C)C)NC(=O)[C@H](C)NC(=O)[C@@H](N)CCCNC(=N)N)[C@@H](C)O)[C@@H](C)O)C(=O)N[C@@H](CC(C)C)C(=O)N[C@H](C(=O)N[C@H](C(=O)N[C@@H](CC(C)C)C(=O)N[C@@H](CC(C)C)C(=O)N[C@@H](CCCNC(=N)N)C(=O)N[C@@H](CCCNC(=N)N)C(=O)O)[C@@H](C)O)[C@@H](C)O` [Peptide P5] (H-RALLTTLLRRPRALLTTLLRR-OH; N-terminus and C-terminus assumed) here?
A: Its value is 12 µg/mL.

Q: Which “E. coli O157 (apparent MIC in screen)” value does the source give for `CC(C)C[C@H](NC(=O)[C@H](C)NC(=O)[C@H](CCCNC(=N)N)NC(=O)[C@@H]1CCCN1C(=O)[C@H](CCCNC(=N)N)NC(=O)[C@H](CCCNC(=N)N)NC(=O)[C@H](CC(C)C)NC(=O)[C@H](CC(C)C)NC(=O)[C@H](C)NC(=O)[C@@H](NC(=O)[C@H](C)NC(=O)[C@H](CC(C)C)NC(=O)[C@H](C)NC(=O)[C@@H](N)CCCNC(=N)N)C(C)C)C(=O)N[C@@H](C)C(=O)N[C@H](C(=O)N[C@@H](C)C(=O)N[C@@H](CC(C)C)C(=O)N[C@@H](CC(C)C)C(=O)N[C@@H](CCCNC(=N)N)C(=O)N[C@@H](CCCNC(=N)N)C(=O)O)C(C)C` [Peptide P12] (H-RALAVALLRRPRALAVALLRR-OH; N-terminus and C-terminus assumed) here?
A: Its value is 25 µg/mL.

Q: Which “E. coli O157 (apparent MIC in screen)” value does the source give for `CC(C)C[C@H](NC(=O)CNC(=O)[C@H](CCCNC(=N)N)NC(=O)[C@@H]1CCCN1C(=O)[C@H](CCCNC(=N)N)NC(=O)[C@H](CCCNC(=N)N)NC(=O)[C@H](C)NC(=O)[C@H](CC(C)C)NC(=O)[C@H](CC(C)C)NC(=O)[C@H](C)NC(=O)[C@H](CC(C)C)NC(=O)[C@H](CC(C)C)NC(=O)CNC(=O)[C@@H](N)CCCNC(=N)N)C(=O)N[C@@H](CC(C)C)C(=O)N[C@@H](C)C(=O)N[C@@H](CC(C)C)C(=O)N[C@@H](CC(C)C)C(=O)N[C@@H](C)C(=O)N[C@@H](CCCNC(=N)N)C(=O)N[C@@H](CCCNC(=N)N)C(=O)O` [Peptide P14] (H-RGLLALLARRPRGLLALLARR-OH; N-terminus and C-terminus assumed) here?
A: The value was 12 µg/mL.

Q: Which “E. coli O157 (apparent MIC in screen)” value does the source give for `CC(C)C[C@H](NC(=O)[C@H](C)NC(=O)[C@H](CCCNC(=N)N)NC(=O)[C@@H]1CCCN1C(=O)[C@H](CCCNC(=N)N)NC(=O)[C@H](CCCNC(=N)N)NC(=O)[C@H](CC(C)C)NC(=O)[C@@H](NC(=O)[C@H](C)NC(=O)[C@@H](NC(=O)[C@H](CC(C)C)NC(=O)[C@H](CC(C)C)NC(=O)[C@H](C)NC(=O)[C@@H](N)CCCNC(=N)N)[C@@H](C)O)C(C)C)C(=O)N[C@@H](CC(C)C)C(=O)N[C@H](C(=O)N[C@@H](C)C(=O)N[C@H](C(=O)N[C@@H](CC(C)C)C(=O)N[C@@H](CCCNC(=N)N)C(=O)N[C@@H](CCCNC(=N)N)C(=O)O)C(C)C)[C@@H](C)O` [Peptide P16] (H-RALLTAVLRRPRALLTAVLRR-OH; N-terminus and C-terminus assumed) here?
A: Its value is 25 µg/mL.

Q: Which “E. coli O157 (apparent MIC in screen)” value does the source give for `CC(C)C[C@H](NC(=O)[C@H](C)NC(=O)[C@H](CC(C)C)NC(=O)[C@@H](NC(=O)[C@H](C)NC(=O)[C@H](CO)NC(=O)[C@H](CCCNC(=N)N)NC(=O)[C@@H]1CCCN1C(=O)[C@H](CCCNC(=N)N)NC(=O)[C@H](CCCNC(=N)N)NC(=O)[C@H](CC(C)C)NC(=O)[C@H](CC(C)C)NC(=O)[C@H](C)NC(=O)[C@H](CC(C)C)NC(=O)[C@@H](NC(=O)[C@H](C)NC(=O)[C@H](CO)NC(=O)[C@@H](N)CCCNC(=N)N)C(C)C)C(C)C)C(=O)N[C@@H](CC(C)C)C(=O)N[C@@H](CCCNC(=N)N)C(=O)N[C@@H](CCCNC(=N)N)C(=O)O` [Peptide P18] (H-RSAVLALLRRPRSAVLALLRR-OH; N-terminus and C-terminus assumed) here?
A: The value was 12 µg/mL.

Q: For `CC[C@H](C)[C@H](NC(=O)[C@H](CC(C)C)NC(=O)[C@H](CC(C)C)NC(=O)[C@H](C)NC(=O)[C@H](CCCNC(=N)N)NC(=O)[C@@H]1CCCN1C(=O)[C@H](CCCNC(=N)N)NC(=O)[C@H](CCCNC(=N)N)NC(=O)[C@H](CC(C)C)NC(=O)[C@H](CC(C)C)NC(=O)[C@@H](NC(=O)[C@@H](NC(=O)[C@H](CC(C)C)NC(=O)[C@H](CC(C)C)NC(=O)[C@H](C)NC(=O)[C@@H](N)CCCNC(=N)N)[C@@H](C)CC)[C@@H](C)O)C(=O)N[C@H](C(=O)N[C@@H](CC(C)C)C(=O)N[C@@H](CC(C)C)C(=O)N[C@@H](CCCNC(=N)N)C(=O)N[C@@H](CCCNC(=N)N)C(=O)O)[C@@H](C)O` [Peptide P23] (H-RALLITLLRRPRALLITLLRR-OH; N-terminus and C-terminus assumed), which “E. coli O157 (apparent MIC in screen)” value is on record?
A: Its value is 25 µg/mL.

Q: `CC(C)C[C@H](NC(=O)CNC(=O)[C@@H](NC(=O)[C@H](Cc1ccccc1)NC(=O)[C@H](CC(C)C)NC(=O)[C@H](CCCNC(=N)N)NC(=O)[C@@H]1CCCN1C(=O)[C@H](CCCNC(=N)N)NC(=O)[C@H](CCCNC(=N)N)NC(=O)[C@H](CC(C)C)NC(=O)[C@H](C)NC(=O)[C@H](CC(C)C)NC(=O)CNC(=O)[C@@H](NC(=O)[C@H](Cc1ccccc1)NC(=O)[C@H](CC(C)C)NC(=O)[C@@H](N)CCCNC(=N)N)C(C)C)C(C)C)C(=O)N[C@@H](C)C(=O)N[C@@H](CC(C)C)C(=O)N[C@@H](CCCNC(=N)N)C(=O)N[C@@H](CCCNC(=N)N)C(=O)O` [Peptide P26] (H-RLFVGLALRRPRLFVGLALRR-OH; N-terminus and C-terminus assumed) was tested. Which “E. coli O157 (apparent MIC in screen)” value did it give?
A: The value was 25 µg/mL.

Q: `CC(C)C[C@H](NC(=O)[C@H](C)NC(=O)[C@H](CC(C)C)NC(=O)[C@@H](NC(=O)[C@@H](NC(=O)[C@H](C)NC(=O)[C@H](CCCNC(=N)N)NC(=O)[C@@H]1CCCN1C(=O)[C@H](CCCNC(=N)N)NC(=O)[C@H](CCCNC(=N)N)NC(=O)[C@H](CC(C)C)NC(=O)[C@H](CC(C)C)NC(=O)[C@H](C)NC(=O)[C@H](CC(C)C)NC(=O)[C@@H](NC(=O)[C@@H](NC(=O)[C@H](C)NC(=O)[C@@H](N)CCCNC(=N)N)[C@@H](C)O)C(C)C)[C@@H](C)O)C(C)C)C(=O)N[C@@H](CC(C)C)C(=O)N[C@@H](CCCNC(=N)N)C(=O)N[C@@H](CCCNC(=N)N)C(=O)O` [Peptide P29] (H-RATVLALLRRPRATVLALLRR-OH; N-terminus and C-terminus assumed) was tested. Which “E. coli O157 (apparent MIC in screen)” value did it give?
A: The value was 25 µg/mL.

Q: Which “E. coli O157 (apparent MIC in screen)” value does the source give for `CC[C@H](C)[C@H](NC(=O)CNC(=O)[C@H](CC(C)C)NC(=O)[C@H](CCCNC(=N)N)NC(=O)[C@@H]1CCCN1C(=O)[C@H](CCCNC(=N)N)NC(=O)[C@H](CCCNC(=N)N)NC(=O)[C@H](CC(C)C)NC(=O)[C@H](C)NC(=O)[C@@H](NC(=O)[C@H](C)NC(=O)[C@@H](NC(=O)CNC(=O)[C@H](CC(C)C)NC(=O)[C@@H](N)CCCNC(=N)N)[C@@H](C)CC)C(C)C)C(=O)N[C@@H](C)C(=O)N[C@H](C(=O)N[C@@H](C)C(=O)N[C@@H](CC(C)C)C(=O)N[C@@H](CCCNC(=N)N)C(=O)N[C@@H](CCCNC(=N)N)C(=O)O)C(C)C` [Peptide P33] (H-RLGIAVALRRPRLGIAVALRR-OH; N-terminus and C-terminus assumed) here?
A: The value was 25 µg/mL.
